These compounds were tested against T1, acetylcholinesterase enzyme from Electrophoruselectricus (AChE enzyme from electric eel) (Electrophorus electricus, UniProt O42275) (assay: biochemical). Conditions: not given.
T1 construct: purchased Sigma
Method: Cholinesterase inhibitory activity of the synthesized compounds was evaluated using the Ellman's microplate assay. For acetylcholinesterase (AChE) inhibitory assay, 140 μL of 0.1 M sodium phosphate buffer (pH 8) was first added to a 96-well microplate followed by 20 μL of test samples and 20 μL of 0.09 units/mL acetylcholinesterase enzyme from Electrophoruselectricus (Sigma). After 15 minutes of incubation at 25°C, 10 μL of 10 mM 5,5′-dithiobis-2-nitrobenzoic acid (DTNB) was added into each well followed by 10 μL of acetylthiocholine iodide (14 mM). At 30 minutes after the initiation of enzymatic reaction, absorbance of the colored end-product was measured using BioTek Power Wave X 340 Microplate Spectrophotometer at 412 nm.
Galantamine was used as positive control. Test samples and galantamine were prepared in DMSO at an initial concentration of 1 mg/mL (1000 ppm). The concentration of DMSO in final reaction mixture was 1%.
The initial screening was carried out at 10 μg/mL of test samples in 1% DMSO and each test was conducted in triplicate. Absorbencies of the test samples were corrected by subtracting the absorbance of their respective blank. Percentage enzyme inhibition is calculated using the following formula: (1) Percentage of inhibition =[…]/Absorbance of control×100. Subsequently, the determination of IC50 was carried out using a set of five concentrations.
All newly synthesized 1,6-naphthyridines were evaluated in vitro for their inhibitory potential against AChE enzyme from electric eel using colorimetric Ellman's method (Table 1).

T1 sequence (O42275 24-633): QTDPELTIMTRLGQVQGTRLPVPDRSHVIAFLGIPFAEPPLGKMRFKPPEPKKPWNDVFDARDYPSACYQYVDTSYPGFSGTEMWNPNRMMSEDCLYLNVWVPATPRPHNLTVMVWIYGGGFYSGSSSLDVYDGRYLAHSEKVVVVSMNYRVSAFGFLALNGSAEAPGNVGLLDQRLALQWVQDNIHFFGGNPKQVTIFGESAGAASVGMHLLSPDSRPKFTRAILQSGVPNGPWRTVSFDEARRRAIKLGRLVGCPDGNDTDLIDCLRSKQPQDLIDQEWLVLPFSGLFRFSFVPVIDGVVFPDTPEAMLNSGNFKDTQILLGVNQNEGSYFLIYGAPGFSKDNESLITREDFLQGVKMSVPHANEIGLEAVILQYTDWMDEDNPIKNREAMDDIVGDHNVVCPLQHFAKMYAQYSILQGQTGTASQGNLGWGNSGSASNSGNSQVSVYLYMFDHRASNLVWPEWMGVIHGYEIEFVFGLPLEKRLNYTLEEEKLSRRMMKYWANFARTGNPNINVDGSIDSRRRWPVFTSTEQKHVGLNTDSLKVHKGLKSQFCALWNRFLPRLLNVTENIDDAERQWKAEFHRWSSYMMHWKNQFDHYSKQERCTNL

Row | SMILES | IC50
1 | N#Cc1c(-c2cccc([N+](=O)[O-])c2)c2c([nH]c1=O)/C(=C/c1cccc([N+](=O)[O-])c1)CNC2 [4g, (E)-8-(3-Nitrobenzylidene)-4-(3-nitrophenyl)-2-oxo-1,2,5,6,7,8-hexahydro-1,6-naphthyridine-3-carbonitrile] | 16.86 ± 0.02 µM

Same assay, conditions: Ellman's method, AChE from electric eel, triplicate, five concentrations; read-out: AChE inhibition (IC50 ± SD)

Row | SMILES | IC50
2 | N#Cc1c(-c2ccccc2)c2c([nH]c1=O)/C(=C/c1ccccc1)CNC2 [4a, (E)-8-Benzylidene-2-oxo-4-phenyl-1,2,5,6,7,8-hexahydro-1,6-naphthyridine-3-carbonitrile] | 11.18 ± 0.02 µM
3 | Cc1ccccc1/C=C1\CNCc2c1[nH]c(=O)c(C#N)c2-c1ccccc1C [4b, (E)-8-(2-Methylbenzylidene)-2-oxo-4-(o-tolyl)-1,2,5,6,7,8-hexahydro-1,6-naphthyridine-3-carbonitrile] | 7.2 ± 0.02 µM
4 | N#Cc1c(-c2ccccc2Cl)c2c([nH]c1=O)/C(=C/c1ccccc1Cl)CNC2 [4c, (E)-8-(2-Chlorobenzylidene)-4-(2-chlorophenyl)-2-oxo-1,2,5,6,7,8-hexahydro-1,6-naphthyridine-3-carbonitrile] | 15.21 ± 0.1 µM
5 | N#Cc1c(-c2ccccc2Br)c2c([nH]c1=O)/C(=C/c1ccccc1Br)CNC2 [4d, (E)-8-(2-Bromobenzylidene)-4-(2-bromophenyl)-2-oxo-1,2,5,6,7,8-hexahydro-1,6-naphthyridine-3-carbonitrile] | 18.16 ± 0.02 µM
6 | COc1ccccc1/C=C1\CNCc2c1[nH]c(=O)c(C#N)c2-c1ccccc1OC [4e, (E)-8-(2-Methoxybenzylidene)-4-(2-methoxyphenyl)-2-oxo-1,2,5,6,7,8-hexahydro-1,6-naphthyridine-3-carbonitrile] | 2.12 ± 0.02 µM
7 | N#Cc1c(-c2ccc(Cl)cc2Cl)c2c([nH]c1=O)/C(=C/c1ccc(Cl)cc1Cl)CNC2 [4f, (E)-8-(2,4-Dichlorobenzylidene)-4-(2,4-dichlorophenyl)-2-oxo-1,2,5,6,7,8-hexahydro-1,6-naphthyridine-3-carbonitrile] | 24.72 ± 0.01 µM
8 | Cc1ccc(/C=C2\CNCc3c2[nH]c(=O)c(C#N)c3-c2ccc(C)cc2)cc1 [4h, (E)-8-(4-Methylbenzylidene)-2-oxo-4-(p-tolyl)-1,2,5,6,7,8-hexahydro-1,6-naphthyridine-3-carbonitrile] | 7.16 ± 0.02 µM
9 | N#Cc1c(-c2ccc(Cl)cc2)c2c([nH]c1=O)/C(=C/c1ccc(Cl)cc1)CNC2 [4i, (E)-8-(4-Chlorobenzylidene)-4-(4-chlorophenyl)-2-oxo-1,2,5,6,7,8-hexahydro-1,6-naphthyridine-3-carbonitrile] | 3.86 ± 0.02 µM
10 | N#Cc1c(-c2ccc(F)cc2)c2c([nH]c1=O)/C(=C/c1ccc(F)cc1)CNC2 [4j, (E)-8-(4-Fluorobenzylidene)-4-(4-fluorophenyl)-2-oxo-1,2,5,6,7,8-hexahydro-1,6-naphthyridine-3-carbonitrile] | 14.16 ± 0.02 µM
11 | N#Cc1c(-c2cccc3ccccc23)c2c([nH]c1=O)/C(=C/c1cccc3ccccc13)CNC2 [4k, (E)-4-(Naphthalen-1-yl)-8-(naphthalen-1-ylmethylene)-2-oxo-1,2,5,6,7,8-hexahydro-1,6-naphthyridine-3-carbonitrile] | 6.86 ± 0.02 µM

Reference: article PMC4325472, “An Expedient Synthesis, Acetylcholinesterase Inhibitory Activity, and Molecular Modeling Study of Highly Functionalized Hexahydro-1,6-naphthyridines” (BioMed Research International, 2015)
